Measurements taken from ChEMBL document CHEMBL4325829, “Design and Synthesis of Tubulin and Histone Deacetylase Inhibitor Based on iso-Combretastatin A-4” (J Med Chem, 2018).
pIC50: −log10 of the molar value. Values after ≈ are worked out from the molar mass of the structure shown. Active and inactive are the calls of the source. No cut-off for these calls is given here.

Columns and labels:
[1] = target: Histone deacetylase 2 (Homo sapiens) (UniProt Q92769); test: Inhibition of human recombinant HDAC2 at 10^-5 M after 15 mins using fluorogenic substrate by fluorimetric assay relative to control
Histone deacetylase 2 (Homo sapiens), sequence (Q92769 whole entry): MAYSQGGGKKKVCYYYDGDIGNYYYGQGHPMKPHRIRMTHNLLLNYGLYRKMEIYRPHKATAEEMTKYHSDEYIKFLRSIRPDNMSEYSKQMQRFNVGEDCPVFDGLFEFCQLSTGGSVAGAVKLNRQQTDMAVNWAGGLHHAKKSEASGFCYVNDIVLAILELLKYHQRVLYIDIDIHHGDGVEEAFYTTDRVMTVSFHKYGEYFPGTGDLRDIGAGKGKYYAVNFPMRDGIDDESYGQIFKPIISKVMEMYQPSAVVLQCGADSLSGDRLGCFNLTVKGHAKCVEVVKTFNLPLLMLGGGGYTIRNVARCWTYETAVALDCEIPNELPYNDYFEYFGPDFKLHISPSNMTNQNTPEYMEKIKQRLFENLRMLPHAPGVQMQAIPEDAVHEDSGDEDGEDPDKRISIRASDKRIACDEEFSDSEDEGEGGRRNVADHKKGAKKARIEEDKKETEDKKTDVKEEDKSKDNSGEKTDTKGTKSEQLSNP

BXPC-3 = test: Antiproliferative activity against human BxPC3 cells after 72 hrs by MTS assay; assay type: functional; conditions: Homo sapiens, BXPC-3, 72 h
[2] = target: Histone deacetylase 5 (Homo sapiens) (UniProt Q9UQL6); test: Inhibition of human recombinant HDAC5 at 10^-5 M after 30 mins using fluorogenic substrate by fluorimetric assay relative to control
Histone deacetylase 5 (Homo sapiens), sequence (Q9UQL6 whole entry): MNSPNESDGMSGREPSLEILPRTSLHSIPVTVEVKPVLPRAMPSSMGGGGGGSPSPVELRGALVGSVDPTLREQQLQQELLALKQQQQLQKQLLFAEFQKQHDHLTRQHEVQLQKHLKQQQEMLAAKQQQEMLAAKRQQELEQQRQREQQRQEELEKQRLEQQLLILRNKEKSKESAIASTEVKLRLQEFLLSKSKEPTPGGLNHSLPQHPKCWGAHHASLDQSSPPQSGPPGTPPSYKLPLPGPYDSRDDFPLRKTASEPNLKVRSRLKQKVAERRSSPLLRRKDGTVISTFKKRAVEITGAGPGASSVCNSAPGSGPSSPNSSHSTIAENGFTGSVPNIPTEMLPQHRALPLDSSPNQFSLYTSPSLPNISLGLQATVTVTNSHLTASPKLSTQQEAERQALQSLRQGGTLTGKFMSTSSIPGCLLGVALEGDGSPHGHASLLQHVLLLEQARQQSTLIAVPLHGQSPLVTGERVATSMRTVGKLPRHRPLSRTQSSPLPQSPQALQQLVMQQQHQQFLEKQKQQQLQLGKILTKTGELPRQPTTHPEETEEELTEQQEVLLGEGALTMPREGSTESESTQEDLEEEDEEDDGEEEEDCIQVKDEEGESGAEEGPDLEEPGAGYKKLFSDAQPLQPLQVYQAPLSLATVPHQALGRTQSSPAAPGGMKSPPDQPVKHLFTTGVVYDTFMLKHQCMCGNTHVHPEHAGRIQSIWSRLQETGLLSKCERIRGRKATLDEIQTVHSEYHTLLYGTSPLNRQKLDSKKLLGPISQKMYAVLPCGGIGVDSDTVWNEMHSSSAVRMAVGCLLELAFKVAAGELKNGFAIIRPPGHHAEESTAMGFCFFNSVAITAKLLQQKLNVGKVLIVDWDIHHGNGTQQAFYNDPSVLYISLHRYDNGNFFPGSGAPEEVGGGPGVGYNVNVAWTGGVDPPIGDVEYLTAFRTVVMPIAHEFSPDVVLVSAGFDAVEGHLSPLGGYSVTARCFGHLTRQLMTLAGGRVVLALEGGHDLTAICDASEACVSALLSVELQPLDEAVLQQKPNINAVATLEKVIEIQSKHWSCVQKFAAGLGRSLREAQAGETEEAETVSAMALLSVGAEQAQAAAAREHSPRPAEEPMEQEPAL

[3] = Induction of apoptosis in human BL2 cells assessed as late apoptotic cells at 10 nM after 48 hrs by annexin V-FITC/propidium iodide double staining-based flow cytometry (reference value: 2.1%); assay type: functional
[4] = target: Histone deacetylase 3 (Homo sapiens) (UniProt O15379); test: Inhibition of human recombinant HDAC3 at 10^-5 M after 10 mins using fluorogenic substrate by fluorimetric assay relative to control
Histone deacetylase 3 (Homo sapiens), sequence (O15379 whole entry): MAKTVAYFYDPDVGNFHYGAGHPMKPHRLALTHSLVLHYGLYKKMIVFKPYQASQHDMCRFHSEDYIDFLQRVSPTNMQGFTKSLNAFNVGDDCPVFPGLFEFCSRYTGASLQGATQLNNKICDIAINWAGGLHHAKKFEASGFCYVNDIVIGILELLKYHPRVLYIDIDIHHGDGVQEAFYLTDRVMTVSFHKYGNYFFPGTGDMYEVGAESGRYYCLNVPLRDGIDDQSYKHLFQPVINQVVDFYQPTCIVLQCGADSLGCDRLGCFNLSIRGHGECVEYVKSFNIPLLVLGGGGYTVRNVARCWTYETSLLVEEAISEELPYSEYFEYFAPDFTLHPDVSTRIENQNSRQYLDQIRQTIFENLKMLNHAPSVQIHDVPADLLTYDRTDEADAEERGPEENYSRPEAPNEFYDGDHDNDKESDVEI

MCF7 = test: Antiproliferative activity against human MCF7 cells after 72 hrs by MTS assay; assay type: functional; conditions: Homo sapiens, MCF7, 72 h
[5] = target: Polyamine deacetylase HDAC10 (Homo sapiens) (UniProt Q969S8); test: Inhibition of human recombinant HDAC10 at 10^-5 M after 45 mins using fluorogenic substrate by fluorimetric assay relative to control
Polyamine deacetylase HDAC10 (Homo sapiens), sequence (Q969S8 whole entry): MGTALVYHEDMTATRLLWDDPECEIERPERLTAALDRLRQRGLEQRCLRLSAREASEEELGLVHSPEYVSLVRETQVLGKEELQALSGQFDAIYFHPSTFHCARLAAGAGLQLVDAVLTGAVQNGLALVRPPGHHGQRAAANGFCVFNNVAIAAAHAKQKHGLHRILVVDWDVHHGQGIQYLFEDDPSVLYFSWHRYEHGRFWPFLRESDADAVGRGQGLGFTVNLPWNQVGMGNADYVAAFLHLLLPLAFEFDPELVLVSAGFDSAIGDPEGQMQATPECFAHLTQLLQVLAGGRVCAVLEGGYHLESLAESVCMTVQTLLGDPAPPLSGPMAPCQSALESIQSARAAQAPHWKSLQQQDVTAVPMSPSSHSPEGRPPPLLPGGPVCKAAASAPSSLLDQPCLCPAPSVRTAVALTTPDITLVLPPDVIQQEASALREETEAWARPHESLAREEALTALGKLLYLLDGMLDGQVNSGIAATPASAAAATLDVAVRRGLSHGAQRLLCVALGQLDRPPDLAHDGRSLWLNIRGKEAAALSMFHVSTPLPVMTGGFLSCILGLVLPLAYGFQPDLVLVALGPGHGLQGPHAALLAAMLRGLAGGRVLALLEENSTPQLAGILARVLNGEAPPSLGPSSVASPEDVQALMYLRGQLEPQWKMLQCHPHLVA

HT-29 = test: Antiproliferative activity against human HT-29 cells after 72 hrs by MTS assay; assay type: functional; conditions: Homo sapiens, HT-29, 72 h
PC-3 = test: Antiproliferative activity against human PC3 cells after 72 hrs by MTS assay; assay type: functional; conditions: Homo sapiens, PC-3, 72 h
[6] = target: Histone deacetylase 7 (Homo sapiens) (UniProt Q8WUI4); test: Inhibition of human recombinant HDAC7 at 10^-5 M after 45 mins using fluorogenic substrate by fluorimetric assay relative to control
Histone deacetylase 7 (Homo sapiens), sequence (Q8WUI4 whole entry): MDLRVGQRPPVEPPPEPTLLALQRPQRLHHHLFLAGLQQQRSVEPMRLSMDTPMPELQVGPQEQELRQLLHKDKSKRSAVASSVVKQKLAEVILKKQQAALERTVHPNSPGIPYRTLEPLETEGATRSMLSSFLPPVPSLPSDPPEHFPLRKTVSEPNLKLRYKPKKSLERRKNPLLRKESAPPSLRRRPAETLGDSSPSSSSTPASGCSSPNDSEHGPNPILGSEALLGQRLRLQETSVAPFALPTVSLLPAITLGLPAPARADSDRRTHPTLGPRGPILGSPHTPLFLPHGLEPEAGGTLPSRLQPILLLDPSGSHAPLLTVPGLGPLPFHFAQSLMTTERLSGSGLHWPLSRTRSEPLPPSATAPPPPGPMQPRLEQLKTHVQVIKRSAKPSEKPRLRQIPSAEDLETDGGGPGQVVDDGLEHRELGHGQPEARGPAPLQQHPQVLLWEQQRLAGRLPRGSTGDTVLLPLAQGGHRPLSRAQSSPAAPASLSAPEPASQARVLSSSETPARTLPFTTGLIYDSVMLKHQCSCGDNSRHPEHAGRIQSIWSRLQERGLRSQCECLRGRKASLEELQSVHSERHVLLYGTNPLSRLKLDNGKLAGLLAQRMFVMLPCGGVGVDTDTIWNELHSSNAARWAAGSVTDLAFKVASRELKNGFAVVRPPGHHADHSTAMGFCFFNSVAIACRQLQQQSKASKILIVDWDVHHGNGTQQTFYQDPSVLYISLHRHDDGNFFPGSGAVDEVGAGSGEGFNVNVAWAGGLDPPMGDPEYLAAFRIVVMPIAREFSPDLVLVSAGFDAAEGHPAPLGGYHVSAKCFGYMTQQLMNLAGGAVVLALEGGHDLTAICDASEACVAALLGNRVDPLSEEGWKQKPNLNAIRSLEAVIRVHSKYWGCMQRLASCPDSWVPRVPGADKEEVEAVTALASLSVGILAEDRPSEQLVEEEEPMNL

[7] = Aqueous solubility of the compound; assay type: physicochemical; conditions: water
A549 = test: Antiproliferative activity against human A549 cells after 72 hrs by MTS assay; assay type: functional; conditions: Homo sapiens, A549, 72 h
K-562R = test: Antiproliferative activity against human K562R cells after 72 hrs by MTS assay; assay type: functional; conditions: Homo sapiens, K-562R, 72 h
[8] = target: T1, Histone deacetylase 8 (Homo sapiens) (UniProt Q9BY41); test: Inhibition of human recombinant HDAC8 at 10^-5 M after 60 mins using fluorogenic substrate by fluorimetric assay relative to control
T1 sequence (whole entry): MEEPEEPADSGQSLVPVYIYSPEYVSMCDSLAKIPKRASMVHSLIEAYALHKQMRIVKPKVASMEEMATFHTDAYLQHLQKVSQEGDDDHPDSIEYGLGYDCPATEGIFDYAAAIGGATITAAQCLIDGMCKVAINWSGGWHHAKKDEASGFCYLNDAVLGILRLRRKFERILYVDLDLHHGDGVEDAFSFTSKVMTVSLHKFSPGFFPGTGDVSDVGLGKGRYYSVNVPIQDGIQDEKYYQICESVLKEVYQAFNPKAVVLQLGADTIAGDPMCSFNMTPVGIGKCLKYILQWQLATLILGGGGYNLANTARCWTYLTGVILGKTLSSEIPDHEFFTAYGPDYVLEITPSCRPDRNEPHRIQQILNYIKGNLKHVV

U-87 MG = test: Antiproliferative activity against human U87 cells after 72 hrs by MTS assay; assay type: functional, U-87MG ATCC; conditions: Homo sapiens, U-87 MG, 72 h
PBL = test: Cytotoxicity against human PBL cells assessed as cell growth inhibition after 72 hrs by MTS assay; assay type: ADME, cell-based
K562 = test: Antiproliferative activity against human K562 cells after 72 hrs by MTS assay; assay type: functional; conditions: Homo sapiens, K562, 72 h
[9] = target: Histone deacetylase 9 (Homo sapiens) (UniProt Q9UKV0); test: Inhibition of human recombinant HDAC9 at 10^-5 M after 30 mins using fluorogenic substrate by fluorimetric assay relative to control
Histone deacetylase 9 (Homo sapiens), sequence (Q9UKV0 whole entry): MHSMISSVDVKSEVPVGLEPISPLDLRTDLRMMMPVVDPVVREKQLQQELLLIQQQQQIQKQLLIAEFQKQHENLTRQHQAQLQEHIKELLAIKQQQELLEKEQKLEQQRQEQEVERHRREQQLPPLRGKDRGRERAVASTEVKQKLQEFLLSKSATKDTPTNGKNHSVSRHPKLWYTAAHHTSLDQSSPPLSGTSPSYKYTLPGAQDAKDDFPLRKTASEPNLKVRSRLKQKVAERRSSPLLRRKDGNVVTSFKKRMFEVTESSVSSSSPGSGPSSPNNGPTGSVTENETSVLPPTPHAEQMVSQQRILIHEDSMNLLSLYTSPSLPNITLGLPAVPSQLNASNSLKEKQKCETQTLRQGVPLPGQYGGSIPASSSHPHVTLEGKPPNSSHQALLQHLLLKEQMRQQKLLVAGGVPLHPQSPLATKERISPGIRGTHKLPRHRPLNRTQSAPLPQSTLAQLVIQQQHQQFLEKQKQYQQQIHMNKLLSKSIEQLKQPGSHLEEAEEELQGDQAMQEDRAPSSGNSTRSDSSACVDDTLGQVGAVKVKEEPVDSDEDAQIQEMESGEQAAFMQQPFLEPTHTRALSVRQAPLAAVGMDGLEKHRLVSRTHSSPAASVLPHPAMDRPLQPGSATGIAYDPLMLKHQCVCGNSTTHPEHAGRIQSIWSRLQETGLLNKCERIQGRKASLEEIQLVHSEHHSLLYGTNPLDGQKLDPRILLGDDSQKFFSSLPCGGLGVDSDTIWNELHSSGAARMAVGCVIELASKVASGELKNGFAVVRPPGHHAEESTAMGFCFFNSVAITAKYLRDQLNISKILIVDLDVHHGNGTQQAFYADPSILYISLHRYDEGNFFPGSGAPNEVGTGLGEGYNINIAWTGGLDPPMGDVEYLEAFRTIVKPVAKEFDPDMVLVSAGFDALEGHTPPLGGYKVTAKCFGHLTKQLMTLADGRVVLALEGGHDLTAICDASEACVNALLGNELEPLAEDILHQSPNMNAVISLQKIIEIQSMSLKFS

HCT-116 = test: Antiproliferative activity against human HCT116 cells after 72 hrs by MTS assay; assay type: functional; conditions: Homo sapiens, HCT-116, 72 h
Histone deacetylase 11 = target: T2, Histone deacetylase 11 (Homo sapiens, UniProt Q96DB2); test: Inhibition of human recombinant HDAC11 after 30 mins using fluorogenic substrate by fluorimetric assay
T2 sequence (Q96DB2 whole entry): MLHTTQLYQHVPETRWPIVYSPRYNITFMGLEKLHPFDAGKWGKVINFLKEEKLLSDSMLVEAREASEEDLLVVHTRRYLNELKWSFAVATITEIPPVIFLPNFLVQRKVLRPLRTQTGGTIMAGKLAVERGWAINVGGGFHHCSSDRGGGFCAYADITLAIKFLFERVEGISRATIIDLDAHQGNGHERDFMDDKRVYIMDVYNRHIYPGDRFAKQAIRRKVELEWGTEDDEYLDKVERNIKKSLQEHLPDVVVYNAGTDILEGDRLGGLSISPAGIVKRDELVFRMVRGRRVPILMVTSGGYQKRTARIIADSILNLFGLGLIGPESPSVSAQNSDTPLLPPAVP

[10] = Induction of apoptosis in human BL2 cells assessed as early apoptotic cells at 10 nM after 48 hrs by annexin V-FITC/propidium iodide double staining-based flow cytometry (reference value: 8.2%); assay type: functional

| Compound | inhibition [1] | GI50 (BXPC-3) | inhibition [2] | Activity [3] | inhibition [4] | GI50 (MCF7) | inhibition [5] | GI50 (HT-29) | GI50 (PC-3) | inhibition [6] | solubility [7] | GI50 (A549) | GI50 (K-562R) | inhibition [8] | GI50 (U-87 MG) | pIC50 (PBL) | GI50 (K562) | inhibition [9] | GI50 (HCT-116) | Activity [10] | other results |
| --- | --- | --- | --- | --- | --- | --- | --- | --- | --- | --- | --- | --- | --- | --- | --- | --- | --- | --- | --- | --- | --- |
| C=C(c1ccc(OC)c(O)c1)c1cc(OC)c(OC)c(OC)c1 | inactive | 20 nM | inactive | 14.3% | inactive | 8 nM | inactive | 276 nM | 3 nM | inactive | 11.6 µg/mL (≈ 36.7 µM) | 10 nM | 2.2 nM | inactive | 8 nM | 5.77 | 5.2 nM | inactive | 2 nM | 81.7% | IC50 (Histone deacetylase 11): Not Active |
| C=C(c1ccc(OC)c(/C=C/C(=O)NO)c1)c1cc(OC)c(OC)c(OC)c1 | < 50% | 2.9 nM | < 50% | 13.7% | < 50% | 2 nM | < 50% | 2.04 nM | 0.4 nM | < 50% | 69.3 µg/mL (≈ 180 µM) | 1.7 nM | 1.4 nM | 95% | 1.6 nM | 5.15 | 1.6 nM | < 50% | 1.5 nM | 82.1% | pIC50 (Histone deacetylase 11; read-out: IC50): 5.00 |
